Test results: patent US10864196B2, “Modulators of the integrated stress pathway” (Calico Life Sciences LLC, priority 2016, dated 2020)

Tested on: HEK293T cells carrying the ATF4 luciferase reporter
Experiment: ATF4-Luc assay (in vitro model of VWMD)
Type: cell-based
Details: Homo sapiens, HEK-293T, 1 μg/mL tunicamycin, 7 hours, One Glo luminescence
Procedure: In order to test exemplary compounds of the invention in a cellular context, a stable VWMD cell line was first constructed. The ATF4 reporter was prepared by fusing the human full-length ATF4 5′-UTR (NCBI Accession No. BC022088.2) in front of the firefly luciferase (FLuc) coding sequence lacking the initiator methionine as described in Sidrauski et al (eLife 2013). The construct was used to produce recombinant retroviruses using standard methods and the resulting viral supernatant was used to transduce HEK293T cells, which were then subsequently selected with puromycin to generate a stable cell line.
HEK293T cells carrying the ATF4 luciferase reporter were plated on polylysine coated 384-well plates (Greiner Bio-one) at 30,000 cells per well. Cells were treated the next day with 1 μg/mL tunicamycin and 200 nM of a compound of Formula (I) for 7 hours. Luminescence was measured using One Glo (Promega) as specified by the manufacturer. Cells were maintained in DMEM with L-glutamine supplemented with 10% heat-inactivated FBS (Gibco) and Antibiotic-Antimycotic solution (Gibco).
Table 2 below summarizes the EC50 data obtained using the ATF4-Luc assay for exemplary compounds of the invention.

Work on `O=C(COc1ccc(Cl)cc1)NC12CC(c3nc(COc4ccc(Cl)c(Cl)c4)no3)(C1)C2` [Compound 158, 2-(4-chlorophenoxy)-N-(3-{3-[(3,4-dichlorophenoxy)methyl]-1,2,4-oxadiazol-5-yl}bicyclo[1.1.1]pentan-1-yl)acetamide] yielded an EC50 of under 50 nM.
Work on `O=C(COc1ccc(Cl)c(F)c1)NC12CC(c3nc(COc4cncc(C(F)(F)F)c4)no3)(C1)C2` [Compound 159, 2-(4-chloro-3-fluorophenoxy)-N-{3-[3-({[5-(trifluoromethyl)pyridin-3-yl]oxy}methyl)-1,2,4-oxadiazol-5-yl]bicyclo[1.1.1]pentan-1-yl}acetamide] yielded an EC50 of 50 to 250 nM.
Work on `O=C(COc1ccc(Cl)c(F)c1)NC12CC(c3nc(COc4ccnc(C(F)(F)F)c4)no3)(C1)C2` [Compound 160, 2-(4-chloro-3-fluorophenoxy)-N-{3-[3-({[2-(trifluoromethyl)pyridin-4-yl]oxy}methyl)-1,2,4-oxadiazol-5-yl]bicyclo[1.1.1]pentan-1-yl}acetamide] yielded an EC50 of 50 to 250 nM.
For `O=C(COc1ccc(Cl)c(F)c1)NC12CC(c3nc(COc4ccc(C(F)(F)F)nc4)no3)(C1)C2` [Compound 161, 2-(4-chloro-3-fluorophenoxy)-N-{3-[3-({[6-(trifluoromethyl)pyridin-3-yl]oxy}methyl)-1,2,4-oxadiazol-5-yl]bicyclo[1.1.1]pentan-1-yl}acetamide], the EC50 was 50 to 250 nM.
`O=C(COc1ccc(Cl)c(F)c1)NC12CC(c3nc(COc4cnc(C(F)(F)F)c(Cl)c4)no3)(C1)C2` [Compound 162, 2-(4-chloro-3-fluorophenoxy)-N-{3-[3-({[5-chloro-6-(trifluoromethyl)pyridin-3-yl]oxy}methyl)-1,2,4-oxadiazol-5-yl]bicyclo[1.1.1]pentan-1-yl}acetamide] was tested, and the EC50 was 50 to 250 nM.
For `O=C(COc1ccc(Cl)c(F)c1)NC12CC(c3nc(COc4ccc(C5CC5)nc4)no3)(C1)C2` [Compound 163, 2-(4-chloro-3-fluorophenoxy)-N-[3-(3-{[(6-cyclopropylpyridin-3-yl)oxy]methyl}-1,2,4-oxadiazol-5-yl)bicyclo[1.1.1]pentan-1-yl]acetamide], the EC50 was 250 to 1000 nM.
For `COCc1nnc([C@]23CC[C@](NC(=O)COc4ccc(Cl)c(F)c4)(CC2)CC3=O)o1` [Compound 164, 2-(4-chloro-3-fluorophenoxy)-N-{4-[5-(methoxymethyl)-1,3,4-oxadiazol-2-yl]-3-oxobicyclo[2.2.2]octan-1-yl}acetamide], the EC50 was 250 to 1000 nM.
Compound `COCc1nnc(C23CCC(NC(=O)COc4ccc(Cl)c(F)c4)(CC2)CC3O)o1` (stereo not shown) [Compound 165, 2-(4-chloro-3-fluorophenoxy)-N-{3-hydroxy-4-[5-(methoxymethyl)-1,3,4-oxadiazol-2-yl]bicyclo[2.2.2]octan-1-yl}acetamide] has an EC50 of 250 to 1000 nM.
`O=C(COc1ccc(Cl)c(F)c1)NC12CCC(c3nc(COc4ccc(C(F)(F)F)nc4)no3)(CC1)C(O)C2` (stereo not shown) [Compound 166, 2-(4-chloro-3-fluorophenoxy)-N-{3-hydroxy-4-[3-({[6-(trifluoromethyl)pyridin-3-yl]oxy}methyl)-1,2,4-oxadiazol-5-yl]bicyclo[2.2.2]octan-1-yl}acetamide] showed an EC50 of 250 to 1000 nM.
Work on `O=C(COc1ccc(Cl)c(F)c1)NC12CCC(c3nc(COc4ccnc(C(F)(F)F)c4)no3)(CC1)C(O)C2` (stereo not shown) [Compound 167, 2-(4-chloro-3-fluorophenoxy)-N-{3-hydroxy-4-[3-({[2-(trifluoromethyl)pyridin-4-yl]oxy}methyl)-1,2,4-oxadiazol-5-yl]bicyclo[2.2.2]octan-1-yl}acetamide] yielded an EC50 of 50 to 250 nM.
`O=C(COc1ccc(Cl)c(F)c1)NC12CC(c3nc(COc4ccc(Cl)c(F)c4)c[nH]3)(C1)C2` [Compound 168, 2-(4-chloro-3-fluorophenoxy)-N-(3-{4-[(4-chloro-3-fluorophenoxy)methyl]-1H-imidazol-2-yl}bicyclo[1.1.1]pentan-1-yl)acetamide] showed an EC50 of under 50 nM.
In the case of `O=C(COc1ccc(Cl)c(F)c1)NC12CC(c3nc(COc4ccc(C(F)(F)F)nc4)c[nH]3)(C1)C2` [Compound 169, 2-(4-chloro-3-fluorophenoxy)-N-{3-[4-({[6-(trifluoromethyl)pyridin-3-yl]oxy}methyl)-1H-imidazol-2-yl]bicyclo[1.1.1]pentan-1-yl}acetamide], the EC50 is reported as over 2000 nM.
For `O=C(COc1ccc(Cl)c(F)c1)NC12CCC(c3nnc(Oc4ccc(Cl)c(F)c4)o3)(CC1)C(O)C2` (stereo not shown) [Compound 170, 2-(4-chloro-3-fluorophenoxy)-N-{4-[5-(4-chloro-3-fluorophenoxy)-1,3,4-oxadiazol-2-yl]-3-hydroxybicyclo[2.2.2]octan-1-yl}acetamide], the EC50 was under 50 nM.
